In ChEMBL document CHEMBL1143305, “SAR and biological evaluation of analogues of a small molecule histone deacetylase inhibitor N-(2-aminophenyl)-4-((4-(pyridin-3-yl)pyrimidin-2-ylamino)methyl)benzamide (MGCD0103)” (Bioorg Med Chem Lett, 2009):
pEC50, pIC50: −log10 of the molar value. Activity calls are given as the source filed them. No cut-off for these calls is given here.

Columns and labels:
Histone deacetylase 1 = Histone deacetylase 1 (Homo sapiens, UniProt Q13547); assay: Inhibition of human recombinant HDAC1
Sequence of Histone deacetylase 1 (Q13547 whole entry): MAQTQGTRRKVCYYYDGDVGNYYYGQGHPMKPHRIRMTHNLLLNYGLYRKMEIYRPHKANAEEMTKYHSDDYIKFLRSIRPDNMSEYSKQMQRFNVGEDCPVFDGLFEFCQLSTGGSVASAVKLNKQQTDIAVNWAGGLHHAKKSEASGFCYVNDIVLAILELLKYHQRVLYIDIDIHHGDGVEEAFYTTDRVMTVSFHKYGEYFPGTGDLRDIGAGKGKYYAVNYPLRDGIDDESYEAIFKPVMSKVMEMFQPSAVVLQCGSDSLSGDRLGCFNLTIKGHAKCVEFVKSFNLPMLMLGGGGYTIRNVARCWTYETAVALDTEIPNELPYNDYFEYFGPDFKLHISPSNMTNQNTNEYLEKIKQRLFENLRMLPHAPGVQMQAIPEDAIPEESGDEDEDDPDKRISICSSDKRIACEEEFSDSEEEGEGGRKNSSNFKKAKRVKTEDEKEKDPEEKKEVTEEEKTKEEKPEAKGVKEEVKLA

HCT-116 [1] = assay: cells; conditions: Homo sapiens
Description: (§1) Antiproliferative activity against human HCT116 cells by MTT assay

HCT-116 [2] = assay: Induction of apoptosis in human HCT116 cells; assay type: functional, cell-based
HMEC [3] = assay: Antiproliferative activity against HMEC by MTT assay; assay type: cell-based; conditions: Homo sapiens
HCT-116 [4] = assay: Induction of p21WAF1/CIP1 expression in human HCT116 cells assessed as […] after 16 hrs by luciferase assay; assay type: functional, cell-based; conditions: for pEC50: HCT-116, 16 h
T-24 = assay: Induction of histone H4 hyperacetylation in human T24 cells after 16 hrs by immunoblotting; assay type: functional, cell-based; conditions: for pEC50: T-24, 16 h
HMEC [5] = assay: Selectivity ratio of IC50 for HMEC to IC50 for human HCT116 cells
HCT-116 [6] = conditions: Homo sapiens
Description: as §1

Structure (SMILES)	pIC50 (Histone deacetylase 1)	pIC50 (HCT-116 [1])	Activity (HCT-116 [2])	pIC50 (HMEC [3])	pEC50 (HCT-116 [4])	pEC50 (T-24)	Ratio IC50 (HMEC [5])	Activity (HCT-116 [4])	Activity (T-24)	Activity (HCT-116 [6])
Nc1ccccc1NC(=O)c1ccc(Nc2nccc(-c3cccnc3)n2)cc1	5.70	5.70	–	–	–	–	–	–	–	–
N#Cc1ccc(-c2ccnc(NCc3ccc(C(=O)Nc4ccccc4N)cc3)n2)cn1	6.80	6.40	Active	< 4.30	6.15	6.00	>20	–	–	–
Nc1ccccc1NC(=O)c1ccc(CNc2cncc(-c3cccnc3)n2)cc1	6.96	6.52	Active	4.80	6.40	6.00	>15	–	–	–
Nc1ccccc1NC(=O)c1ccc(CNc2nccc(-c3ccsc3)n2)cc1	7.15	7.15	–	5.15	6.52	5.52	>30	–	–	–
Nc1ccccc1NC(=O)c1ccc(CNc2nccc(-c3ccc(CN4CCOCC4)cc3)n2)cc1	7.05	7.00	–	4.57	6.30	6.00	>30	–	–	–
CN(C)CCOc1ccc(-c2ccnc(NCc3ccc(C(=O)Nc4ccccc4N)cc3)n2)cc1	6.92	7.05	–	5.00	7.00	> 6.00	>30	–	–	–
Nc1cc(-c2cccnc2)nc(NCc2ccc(C(=O)Nc3ccccc3N)cc2)n1	6.77	6.70	–	4.85	6.70	6.00	–	–	–	–
COCOC(C)(C)c1ccc(-c2ccnc(NCc3ccc(C(=O)Nc4ccccc4N)cc3)n2)cn1	6.60	7.00	Active	4.31	6.00	6.00	>20	–	–	–
Nc1ccccc1NC(=O)c1ccc(CNc2cccc(-c3cccnc3)c2)cc1	7.05	6.52	Active	5.30	6.22	> 6.00	>15	–	–	–
Nc1ccccc1NC(=O)c1ccc(CNc2nccc(-c3ccc(N4CCOCC4)nc3)n2)cc1	7.30	> 7.30	Active	5.30	6.40	> 6.00	>20	–	–	–
Nc1ccccc1NC(=O)c1ccc(CNc2nccc(-c3cc(CO)no3)n2)cc1	6.68	6.10	–	< 4.30	–	6.00	>30	inactive	–	–
Nc1ccccc1NC(=O)c1ccc(CNc2cc(-c3cccnc3)ncn2)cc1	7.15	> 7.30	Active	4.38	6.30	> 6.00	>15	–	–	–
CN1CCN(c2ccc(-c3ccnc(NCc4ccc(C(=O)Nc5ccccc5N)cc4)n3)cn2)CC1	7.10	6.70	Active	5.30	6.70	–	>20	–	inactive	–
O=C(Nc1ccccc1)c1ccc(CNc2nccc(-c3cccnc3)n2)cc1	< 4.60	< 4.30	–	–	–	–	–	–	–	–
Nc1ccccc1NC(=O)c1cccc(CNc2nccc(-c3cccnc3)n2)c1	< 4.70	4.37	–	–	–	–	–	–	–	–
Nc1ccccc1NC(=O)c1ccc(CNc2ccnc(-c3cccnc3)n2)cc1	6.70	6.40	Active	4.96	6.22	> 6.00	–	–	–	–

Structure (SMILES)	pIC50 (Histone deacetylase 1)	pIC50 (HCT-116 [1])	Activity (HCT-116 [2])	pIC50 (HMEC [3])	pEC50 (HCT-116 [4])	pEC50 (T-24)	Ratio IC50 (HMEC [5])	Activity (HCT-116 [4])	Activity (T-24)	Activity (HCT-116 [6])
CSc1ccc(-c2ccnc(NCc3ccc(C(=O)Nc4ccccc4N)cc3)n2)cn1	7.05	6.52	Active	5.22	6.52	6.00	>20	–	–	–
CN(C)C(=O)c1ccc(-c2ccnc(NCc3ccc(C(=O)Nc4ccccc4N)cc3)n2)cn1	6.38	6.52	Active	< 4.30	6.05	5.70	>20	–	–	–
Nc1ccccc1NC(=O)c1ccc(CNc2nccc(-c3ccc(C(=O)N4CCOCC4)nc3)n2)cc1	6.60	6.00	Active	4.43	5.70	–	>20	–	inactive	–
CC(C)(O)c1ccc(-c2ccnc(NCc3ccc(C(=O)Nc4ccccc4N)cc3)n2)cn1	6.64	7.00	Active	4.42	6.22	5.70	>20	–	–	–
CN(C)CCOc1cccc(-c2ccnc(NCc3ccc(C(=O)Nc4ccccc4N)cc3)n2)c1	6.89	6.52	–	4.96	–	> 6.00	>30	inactive	–	–
Nc1ccccc1NC(=O)c1ccc(CNc2nccc(-c3cccnc3)n2)cc1 [MOCETINOSTAT]	–	6.52	–	4.68	6.22	> 6.00	–	–	–	–
Nc1ccccc1NC(=O)c1ccc(/C=C/CNc2nccc(-c3cccnc3)n2)cc1	6.89	–	–	–	–	–	–	–	–	–
Nc1ccccc1NC(=O)c1ccc(CNc2nccc(-c3cnccn3)n2)cc1	6.72	6.52	–	4.64	6.22	6.00	>30	–	–	–
Nc1ccccc1NC(=O)c1ccc(CNc2nccc(-c3nccs3)n2)cc1	6.85	–	–	4.85	6.30	> 6.00	>30	–	–	inactive
Nc1ccccc1C(=O)Nc1ccc(CNc2nccc(-c3cccnc3)n2)cc1	< 4.70	4.60	–	–	–	–	–	–	–	–
Nc1ccccc1NC(=O)c1ccc(CNc2nccc(-c3ccc(OCCN4CCOCC4)cc3)n2)cc1	7.10	7.00	–	5.10	7.00	> 6.00	>30	–	–	–
Nc1ccccc1NC(=O)c1ccc(CNc2nccc(-c3cccc(OCCN4CCOCC4)c3)n2)cc1	6.85	6.52	–	4.39	6.40	6.00	>30	–	–	–
Nc1ccccc1NC(=O)/C=C/c1ccc(CNc2nccc(-c3cccnc3)n2)cc1	5.92	5.70	–	–	–	–	–	–	–	–
CSc1nc(NCc2ccc(C(=O)Nc3ccccc3N)cc2)cc(-c2cccnc2)n1	6.60	7.00	–	4.89	6.22	6.00	–	–	–	–
Nc1ccccc1NC(=O)c1ccc(CNc2cccc(-c3cccnc3)n2)cc1	6.74	6.22	Active	< 4.30	6.22	6.00	–	–	–	–
